From patent US20110201620A1, “2-(3-AMINOARYL) AMINO-4-ARYL-THIAZOLES AND THEIR USE AS C-KIT INHIBITORS” (AB SCIENCE, priority 2002, published 2011)
“And” between values parts separate entries of the source, which are not always exact repeats. Identical values can stand only once.

How the values were obtained:
[1] = Phase 2 clinical trial in advanced GIST, safety assessment; format: in vivo, human
From the text: Methods; Patients: Patients enrolled in this study were aged over 18 years with inoperable, non-pretreated, histologically proven locally advanced or metastatic, c-Kit positive GIST. […] Exclusion criteria included: inadequate organ function defined via blood tests, severe liver or cardiac failure, and severe neurological or psychiatric disorders. Patients receiving a concomitant treatment within 4 weeks before inclusion, and pregnant or lactating women were also excluded. […] All adverse events (AEs), including abnormal serology or haematology, were recorded regardless of causality.

[2] = test system: locally advanced or metastatic, c-Kit positive GIST; assay: Phase 2 clinical trial in advanced GIST, efficacy (RECIST, FDG-PET, PFS, OS); format: in vivo, human
From the text: Methods; Patients: Patients enrolled in this study were aged over 18 years with inoperable, non-pretreated, histologically proven locally advanced or metastatic, c-Kit positive GIST. […] Exclusion criteria included: inadequate organ function defined via blood tests, severe liver or cardiac failure, and severe neurological or psychiatric disorders. Patients receiving a concomitant treatment within 4 weeks before inclusion, and pregnant or lactating women were also excluded. […] Time-to-event analyses were calculated from the date of first masitinib intake to the date of event (documented progression or death). Patients who had not progressed at the date of last tumor assessment were censored at that date for PFS. Patients alive at the time of the analysis were censored at the date of last contact for OS. Methods; Statistical analyses: Simon […] two-stage design was used for this prospective, multicenter, single-group, phase II trial. Fourteen patients were initially enrolled, with recruitment of an additional ten patients being dependent on the occurrence of at least one objective RECIST response. This population was further extended to a total of 30 patients to ensure a sufficient evaluable population for all end-points; the type I(α) error was 5% (two-sided) for all analyses. Quantitative variables were described by the number of filled and missing data, mean, standard deviation, median, minimum and maximum Qualitative variables were described by the number of missing data and, for each modality, frequency and percentage (referring to filled data). Time-to-event data were described using Kaplan-Meier (KM) estimates. The median was provided with its 95% confidence interval (95% CI). PFS rates were given every 6 months with KM estimates. All data analyses and reporting procedures used SAS v9.1 in a Windows XP operating system environment.

[3] = N = 30, Suspected: treatment related or not assessable
[4] = Kaplan-Meier estimate, listed as masitinib

Q: Which “Anaemia, Suspected, G3 + G4” value [1, 3] does the source give for Cc1ccc(NC(=O)c2ccc(CN3CCN(C)CC3)cc2)cc1Nc1nc(-c2cccnc2)cs1 [Compound 066, 4-(4-methyl-piperazin-1-ylmethyl)-N-[4-methyl-3-(4-pyridin-3-yl-thiazol-2-ylamino)-phenyl]-benzamide] here?
A: Its value is 1 (3.3%) Number (%) of patients.

Q: And the “Asthenia, Suspected, All grades” value [1, 3]?
A: Its value is 25 (83.3%) Number (%) of patients.

Q: What about the “Asthenia, Suspected, G3 + G4” value [1, 3] of the same molecule?
A: Its value is 1 (3.3%) Number (%) of patients.

Q: What about the “Diarrhoea, Suspected, All grades” value [1, 3] of the same molecule?
A: The value was 17 (56.7%) Number (%) of patients.

Q: What about the “Diarrhoea, Suspected, G3 + G4” value [1, 3] of the same molecule?
A: The value was 1 (3.3%) Number (%) of patients.

Q: And the “Dry Skin, Suspected, All grades” value [1, 3]?
A: The value was 4 (13.3%) Number (%) of patients.

Q: And the “Erythema, Suspected, All grades” value [1, 3]?
A: Its value is 5 (16.7%) Number (%) of patients.

Q: And the “Eye Oedema, Suspected, All grades” value [1, 3]?
A: The value was 14 (46.7%) Number (%) of patients.

Q: And the “Eye Oedema, Suspected, G3 + G4” value [1, 3]?
A: The value was 1 (3.3%) Number (%) of patients.

Q: What about the “Eyelid Oedema, Suspected, All grades” value [1, 3] of the same molecule?
A: Its value is 7 (23.3%) Number (%) of patients.

Q: What about the “Lacrimation Increased, Suspected, All grades” value [1, 3] of the same molecule?
A: Its value is 4 (13.3%) Number (%) of patients.

Q: What about the “Mucosal Inflammation, Suspected, All grades” value [1, 3] of the same molecule?
A: Its value is 5 (16.7%) Number (%) of patients.

Q: What about the “Mucosal Inflammation, Suspected, G3 + G4” value [1, 3] of the same molecule?
A: Its value is 1 (3.3%) Number (%) of patients.

Q: And the “Muscle Spasms, Suspected, All grades” value [1, 3]?
A: Its value is 12 (40.0%) Number (%) of patients.

Q: What about the “Myalgia, Suspected, All grades” value [1, 3] of the same molecule?
A: The value was 4 (13.3%) Number (%) of patients.

Q: What about the “Nausea, Suspected, All grades” value [1, 3] of the same molecule?
A: Its value is 14 (46.7%) Number (%) of patients.

Q: And the “Neutropenia, Suspected, All grades” value [1, 3]?
A: Its value is 5 (16.7%) Number (%) of patients.

Q: And the “Neutropenia, Suspected, G3 + G4” value [1, 3]?
A: Its value is 2 (6.7%) Number (%) of patients.

Q: And the “Oedema Peripheral, Suspected, All grades” value [1, 3]?
A: The value was 6 (20.0%) Number (%) of patients.

Q: What about the “Pruritus, Suspected, All grades” value [1, 3] of the same molecule?
A: Its value is 10 (33.3%) Number (%) of patients.

Q: And the “Pruritus, Suspected, G3 + G4” value [1, 3]?
A: Its value is 1 (3.3%) Number (%) of patients.

Q: What about the “Rash, Suspected, All grades” value [1, 3] of the same molecule?
A: The value was 12 (40.0%) Number (%) of patients.

Q: What about the “Rash, Suspected, G3 + G4” value [1, 3] of the same molecule?
A: Its value is 3 (10.0%) Number (%) of patients.

Q: What about the “Vomiting, Suspected, All grades” value [1, 3] of the same molecule?
A: The value was 7 (23.3%) Number (%) of patients.

Q: And the cardiac side-effects ([1]; human, in vivo)?
A: The cardiac side-effects was “no cardiac side-effects have been observed”.

Q: What about the “total number of serious adverse events (SAE)” value ([1]; in 8/30 patients) of the same molecule?
A: Its value is 14.

Q: What about the “patients with dose reduced by 100 or 200 mg/day following grade 3-4 AEs” value ([1]; six patients) of the same molecule?
A: Its value is 20%.

Q: What about the “number of treatment-related SAE” value ([1]; worsening of a concomitant psoriasis and anaemia) of the same molecule?
A: Its value is “three”.

Q: And the “patients who never benefited from treatment (early resistance)” value ([2]; 1/30 patient)?
A: The value was 3.3%.

Q: What about the “OS rates (%) [95% CI] 12 months” value [2, 4] of the same molecule?
A: The value was 96.7%.

Q: What about the “OS rates (%) [95% CI] 24 months” value [2, 4] of the same molecule?
A: The value was 89.9%.

Q: What about the “OS rates (%) [95% CI] 36 months” value [2, 4] of the same molecule?
A: Its value is 89.9%.

Q: What about the “PFS rate (%) [95% CI] 6 months” value [2, 4] of the same molecule?
A: The value was 88.9%.

Q: And the “PFS rate (%) [95% CI] 12 months” value [2, 4]?
A: Its value is 76.8%.

Q: What about the “PFS rate (%) [95% CI] 24 months” value [2, 4] of the same molecule?
A: The value was 59.7% and 60%.

Q: What about the “PFS rate (%) [95% CI] 36 months” value [2, 4] of the same molecule?
A: Its value is 55.4% and 55%.

Q: And the “PFS Median” value ([2]; Kaplan-Meier, ITT N = 30)?
A: Its value is 41.3 months.

Q: And the “Metabolic response CMR, At 1 month” value ([2]; N = 13, FDG-PET, complete metabolic response)?
A: The value was 0 (0.0%) n (%).

Q: And the “Metabolic response CMR + PMR, At 1 month” value ([2]; N = 13, FDG-PET, metabolic response rate)?
A: Its value is 9 (69.2%) n (%).

Q: And the “Metabolic response PMR, At 1 month” value ([2]; N = 13, FDG-PET, partial metabolic response, listed as masitinib)?
A: The value was 9 (69.2%) n (%).

Q: What about the “Metabolic response SMD, At 1 month” value ([2]; N = 13, FDG-PET, stable metabolic disease, listed as masitinib) of the same molecule?
A: The value was 4 (30.8%) n (%).

Q: And the “Metabolic response CMR, At 2 months” value ([2]; N = 14, FDG-PET, complete metabolic response, listed as masitinib)?
A: The value was 3 (21.4%) n (%).

Q: And the “Metabolic response CMR + PMR, At 2 months” value ([2]; N = 14, FDG-PET, metabolic response rate, listed as masitinib)?
A: Its value is 12 (85.7%) n (%).

Q: And the “Metabolic response PMR, At 2 months” value ([2]; N = 14, FDG-PET, partial metabolic response, listed as masitinib)?
A: Its value is 9 (64.2%) n (%).

Q: What about the “Metabolic response SMD, At 2 months” value ([2]; N = 14, FDG-PET, stable metabolic disease, listed as masitinib) of the same molecule?
A: Its value is 2 (14.3%) n (%).

Q: And the “Response (RECIST) CR, 2 months” value ([2]; N = 30, complete response)?
A: The value was 0 (0.0%) n (%).

Q: What about the “Response (RECIST) CR, Best Response” value ([2]; N = 30, complete response, listed as masitinib) of the same molecule?
A: Its value is 1 (3.3%) n (%).

Q: And the “Response (RECIST) CR + PR + SD, 2 months” value ([2]; N = 30, disease control rate)?
A: The value was 29 (96.7%) n (%).

Q: What about the “Response (RECIST) CR + PR + SD, Best Response” value ([2]; N = 30, disease control rate, listed as masitinib) of the same molecule?
A: Its value is 29 (96.7%) n (%).

Q: What about the “Response (RECIST) CR + PR, 2 months” value ([2]; N = 30, overall response rate) of the same molecule?
A: The value was 6 (20.0%) n (%).

Q: And the “Response (RECIST) CR + PR, Best Response” value ([2]; N = 30, overall response rate, listed as masitinib)?
A: The value was 16 (53.3%) n (%).

Q: What about the “Response (RECIST) PR, Best Response” value ([2]; N = 30, partial response, listed as masitinib) of the same molecule?
A: Its value is 15 (50.0%) n (%).

Q: What about the “Response (RECIST) PD, Best Response” value ([2]; N = 30, progressive disease, listed as masitinib) of the same molecule?
A: Its value is 1 (3.3%) n (%).

Q: And the “Response (RECIST) SD, Best Response” value ([2]; N = 30, stable disease, listed as masitinib)?
A: The value was 13 (43.3%) n (%).

Q: And the “tumour response according to changes in tumour size (RECIST), evaluable patients” value ([2]; after 2 months of masitinib)?
A: The value was 20%.

Q: And the “tumour response according to metabolic response using FDG-PET” value ([2]; after 2 months of masitinib)?
A: The value was 86%.

Q: And the “tumour response in patients assessed with DCE-US” value ([2]; after 2 months of masitinib)?
A: Its value is 75%.

Q: And the “patients with confirmed PR after 2 months, Simon first stage” value ([2]; first 14 patients)?
A: The value was 4/14.

Q: And the “Median time to first objective response” value ([2]; range: 0.8-23.8 months)?
A: Its value is 5.6 months.
